In ChEMBL document CHEMBL1201862, “PubChem BioAssay data set” (2004):
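Tested at 5 concentrations; 48 h exposure; 96-well plates; endpoints linearly interpolated, else capped at highest concentration. GI50 is the concentration that inhibits growth by half.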 Active and inactive are the calls of the source. Cut-off read from the data, not from the text of the source: active = GI50 up to about 1.1 µM and inactive = higher.

Experiments:
Experiment in all cases: inhibition of tumour cell growth, NCI panel, 48 h
LOX IMVI = test system: LOX IMVI
CAKI-1 = test system: CAKI-1
SR = test system: SR
COLO 205 = test system: COLO 205
BT-549 = test system: BT-549
MDA-N = test system: MDA-N
NCI-H522 = test system: NCI-H522
A549 = test system: A549
MOLT-4 = test system: MOLT-4
HCT-15 = test system: HCT-15
KM12 = test system: KM12
SNB-19 = test system: SNB-19
SK-MEL-5 = test system: SK-MEL-5
CCRF-CEM = test system: CCRF-CEM
HT-29 = test system: HT-29
SF-268 = test system: SF-268
U-251 = test system: U-251
M19-MEL = test system: M19-MEL
DLD-1 = test system: DLD-1
LXFL 529 = test system: LXFL 529

| SMILES | GI50 (LOX IMVI) | GI50 (CAKI-1) | GI50 (SR) | GI50 (COLO 205) | GI50 (BT-549) | GI50 (MDA-N) | GI50 (NCI-H522) | GI50 (A549) | GI50 (MOLT-4) | GI50 (HCT-15) | GI50 (KM12) | GI50 (SNB-19) | GI50 (SK-MEL-5) | GI50 (CCRF-CEM) | GI50 (HT-29) | GI50 (SF-268) | GI50 (U-251) | GI50 (M19-MEL) | GI50 (DLD-1) | GI50 (LXFL 529) |
| --- | --- | --- | --- | --- | --- | --- | --- | --- | --- | --- | --- | --- | --- | --- | --- | --- | --- | --- | --- | --- |
| CC(C)N(CC(=O)O)CC(=O)O | > 100 µM (inactive) | > 100 µM (inactive) | > 100 µM (inactive) | > 100 µM (inactive) | > 100 µM (inactive) | > 100 µM (inactive) | > 100 µM (inactive) | > 100 µM (inactive) | > 100 µM (inactive) | > 100 µM | > 100 µM (inactive) | > 100 µM (inactive) | > 100 µM (inactive) | > 100 µM (inactive) | > 100 µM (inactive) | > 100 µM (inactive) | > 100 µM (inactive) | – | – | – |
| C[N+](C)(C)CC(=O)N/N=C(/Cc1cc(=O)oc2cc(O)ccc12)C(=O)Nc1ccc(Cl)cc1 | – | > 100 µM (inactive) | > 100 µM (inactive) | > 100 µM (inactive) | – | – | > 100 µM (inactive) | > 100 µM (inactive) | > 100 µM (inactive) | – | > 100 µM (inactive) | > 100 µM (inactive) | > 100 µM (inactive) | > 100 µM (inactive) | > 100 µM (inactive) | > 100 µM (inactive) | – | > 100 µM (inactive) | > 100 µM (inactive) | – |
| CC(C)N(C(=O)C12C3C4C1C1C2C3C41C(O)C(C)(C)C)C(C)C (configuration not stated) | – | > 50 µM (inactive) | > 50 µM (inactive) | > 50 µM (inactive) | – | – | > 50 µM (inactive) | > 50 µM (inactive) | > 50 µM (inactive) | > 50 µM | – | > 50 µM (inactive) | > 50 µM (inactive) | > 50 µM (inactive) | > 50 µM (inactive) | > 50 µM (inactive) | > 50 µM (inactive) | > 50 µM (inactive) | – | > 50 µM (inactive) |
| COC(=O)c1ccc(C)cc1CC1Cc2c(C)cccc2C1=O (configuration not stated) | 8.09 µM (inactive) | 6.4 µM (inactive) | 9.35 µM (inactive) | 5.69 µM (inactive) | 4.99 µM (inactive) | 1.87 µM (inactive) | 4.46 µM (inactive) | 7.57 µM (inactive) | 5.56 µM (inactive) | 3.05 µM | 3.4 µM (inactive) | 9.89 µM (inactive) | 5.82 µM (inactive) | 7.05 µM (inactive) | 3.04 µM (inactive) | 9.89 µM (inactive) | 5.96 µM (inactive) | – | – | – |
| Cc1cc2c(c(C#N)c1C)NC(=O)C(CC(=O)O)C2=O (configuration not stated) | > 100 µM (inactive) | > 100 µM (inactive) | – | > 100 µM (inactive) | – | – | – | > 100 µM (inactive) | > 100 µM (inactive) | > 100 µM | > 100 µM (inactive) | – | > 100 µM (inactive) | > 100 µM (inactive) | > 100 µM (inactive) | > 100 µM (inactive) | > 100 µM (inactive) | > 100 µM (inactive) | > 100 µM (inactive) | > 100 µM (inactive) |
| O=C(Cn1cc(I)c(C(=O)NCC(O)CO)n1)NCC(O)CO (configuration not stated) | > 100 µM (inactive) | – | – | > 100 µM (inactive) | – | – | > 100 µM (inactive) | > 100 µM (inactive) | > 100 µM (inactive) | > 100 µM | > 100 µM (inactive) | > 100 µM (inactive) | – | > 100 µM (inactive) | > 100 µM (inactive) | > 100 µM (inactive) | > 100 µM (inactive) | > 100 µM (inactive) | > 100 µM (inactive) | > 100 µM (inactive) |
| CC(C)c1nc(Cl)c(Cl)c(Cl)n1 | 0.246 µM (active) | 2.09 µM (inactive) | 0.431 µM (active) | 2.71 µM (inactive) | 0.621 µM (active) | 4.35 µM (inactive) | 0.759 µM (active) | 2.58 µM (inactive) | 1.8 µM (inactive) | 0.695 µM | 8.39 µM (inactive) | 18.6 µM (inactive) | 16.2 µM (inactive) | 1.07 µM (active) | 2.1 µM (inactive) | 1.91 µM (inactive) | 3.42 µM (inactive) | – | – | – |
| CC(C)(C)c1cc(C(=O)O)c(C(c2ccccc2)c2ccccc2C(=O)O)c(C(=O)O)c1 (configuration not stated) | > 100 µM (inactive) | > 100 µM (inactive) | > 100 µM (inactive) | 33.8 µM (inactive) | – | – | 2.52 µM (inactive) | > 100 µM (inactive) | > 100 µM (inactive) | > 100 µM | > 100 µM (inactive) | > 100 µM (inactive) | – | > 100 µM (inactive) | > 100 µM (inactive) | > 100 µM (inactive) | 11.3 µM (inactive) | – | > 100 µM (inactive) | > 100 µM (inactive) |
| N#CSc1[nH]cnc1C(N)=O | 41.3 µM (inactive) | > 44.4 µM (inactive) | < 0.01 µM (active) | > 81.8 µM (inactive) | > 80.7 µM (inactive) | 22.1 µM (inactive) | 51.4 µM (inactive) | > 100 µM (inactive) | > 10 µM (inactive) | > 100 µM | > 100 µM (inactive) | > 100 µM (inactive) | > 100 µM (inactive) | 5.21 µM (inactive) | > 100 µM (inactive) | > 100 µM (inactive) | > 95.9 µM (inactive) | – | – | – |
| O=C(/C=C\c1cccc2ccccc12)c1ccc(F)cc1 | – | 17.3 µM (inactive) | – | 19 µM (inactive) | – | – | 20.5 µM (inactive) | 26.8 µM (inactive) | 16 µM (inactive) | 15.1 µM | 15 µM (inactive) | 16.6 µM (inactive) | 17.8 µM (inactive) | 13.6 µM (inactive) | 17.3 µM (inactive) | 15 µM (inactive) | 15.8 µM (inactive) | 19.6 µM (inactive) | 19.1 µM (inactive) | 17.1 µM (inactive) |
| O=C(O)CCN(CCCN(CCC(=O)O)CCC(=O)O)CCC(=O)O | > 100 µM (inactive) | > 100 µM (inactive) | – | > 100 µM (inactive) | – | – | > 100 µM (inactive) | > 100 µM (inactive) | > 100 µM (inactive) | > 100 µM | > 100 µM (inactive) | – | > 100 µM (inactive) | > 100 µM (inactive) | > 100 µM (inactive) | > 100 µM (inactive) | > 100 µM (inactive) | > 100 µM (inactive) | > 100 µM (inactive) | > 100 µM (inactive) |
| CC(C)=CCN1CC(C)C(=O)Nc2ccccc21 (configuration not stated) | > 100 µM (inactive) | > 100 µM (inactive) | > 100 µM (inactive) | > 100 µM (inactive) | > 100 µM (inactive) | > 100 µM (inactive) | 66.8 µM (inactive) | > 100 µM (inactive) | > 100 µM (inactive) | > 100 µM | > 100 µM (inactive) | > 100 µM (inactive) | 42.6 µM (inactive) | > 100 µM (inactive) | > 100 µM (inactive) | > 100 µM (inactive) | > 100 µM (inactive) | – | – | – |
| C[Si](C)(C)CN1C(=O)c2ccccc2C1(O)c1ccccc1 (configuration not stated) | 49.4 µM (inactive) | 46.1 µM (inactive) | 83.6 µM (inactive) | 92.7 µM (inactive) | – | – | 33.5 µM (inactive) | 40.4 µM (inactive) | 24.2 µM (inactive) | > 68.4 µM | 59.7 µM (inactive) | > 100 µM (inactive) | 46.6 µM (inactive) | 66.4 µM (inactive) | 87.9 µM (inactive) | 98.4 µM (inactive) | > 100 µM (inactive) | – | > 100 µM (inactive) | 93.1 µM (inactive) |
| COc1cccc(C=O)c1C(=O)c1cc(O)ccc1O | 37.8 µM (inactive) | 23.7 µM (inactive) | 0.457 µM (active) | 18.1 µM (inactive) | – | – | > 10 µM (inactive) | > 100 µM (inactive) | 3.13 µM (inactive) | 19.5 µM | > 100 µM (inactive) | > 100 µM (inactive) | 91.8 µM (inactive) | 3.91 µM (inactive) | > 49.2 µM (inactive) | > 40 µM (inactive) | > 100 µM (inactive) | 30.8 µM (inactive) | 16.3 µM (inactive) | – |
| CCCc1c(O)c(=O)c2c(OC)cc(OC)c3c4c(OC)cc(OC)c5c(=O)c(O)c(CCC)c(c1c23)c54 | 0.338 µM (active) | 0.394 µM (active) | 0.141 µM (active) | 2.44 µM (inactive) | 0.34 µM (active) | 0.425 µM (active) | 0.199 µM (active) | 0.386 µM (active) | 0.0883 µM (active) | 0.746 µM | 0.458 µM (active) | 0.351 µM (active) | 0.533 µM (active) | 0.181 µM (active) | 0.729 µM (active) | 0.714 µM (active) | 0.415 µM (active) | – | – | – |
| C=C1C(=O)c2cc3c(cc2C(c2cc(OC)c(OC)c(OC)c2)[C@@H]1C(=O)O)OCO3 (some centres not stated) | 43.6 µM (inactive) | 54.2 µM (inactive) | – | 39.3 µM (inactive) | – | – | 28.3 µM (inactive) | 80.4 µM (inactive) | 37.9 µM (inactive) | 38 µM | 44.5 µM (inactive) | – | 50.7 µM (inactive) | 33 µM (inactive) | 37.2 µM (inactive) | – | 49.9 µM (inactive) | 49.1 µM (inactive) | 55.3 µM (inactive) | 51.5 µM (inactive) |
| COC1C(O)=C2C(=O)O/C(C)=C/C=C/C=C/C=C\CC(c3ccccc3)NC(=O)\C=C/C=C\C=C\C=C\[C@@]2(C)[C@@H]1O (some centres not stated) | 0.0176 µM (active) | < 0.0203 µM (active) | < 0.0125 µM (active) | 0.0104 µM (active) | < 0.01 µM (active) | 0.033 µM (active) | < 0.01 µM (active) | < 0.01 µM (active) | < 0.0181 µM (active) | < 0.01 µM | < 0.0146 µM (active) | < 0.01 µM (active) | 0.0395 µM (active) | < 0.01 µM (active) | < 0.01 µM (active) | < 0.028 µM (active) | < 0.01 µM (active) | 0.0538 µM (active) | < 0.01 µM (active) | – |
